Assay results taken from paper PMC6609550, “Blockade of the forward Na^+/Ca^2+ exchanger suppresses the growth of glioblastoma cells through Ca^2+‐mediated cell death” (British Journal of Pharmacology, 2019).
One block for each compound: values may come before it.

Key:
human astrocytes = assay: Cell viability of human astrocytes; format: cell-based; conditions: 25 μM, 48 hr
Description: (§1) Cell viability was determined by using a Cell Counting Kit‐8 (Dojindo, Japan). Briefly, cells were harvested from flasks and plated in 96‐well cell culture plates at 5 × 10^3 per well and cultured overnight. Cells were treated with test reagents for 72 hr. Control cells were treated with cell culture medium and measured at the same time point as treatment groups. CCK‐8 solution (10 μl) was added to each well of the 96‐well plates, and the cultures were incubated for 30 min at 37°C. Absorbance at 450 nm was measured using an automatic microplate reader (Molecular Devices, San Jose, CA, USA).
Figure 8 Impact of bepridil on human astrocytes (HA) and the Na^+/Ca^2+ exchanger (NCX) isoforms in each cell line. (a) Viability of U87, U251, and SF188 cells and HA after exposure to bepridil (25 μM, 48 hr); n = 5 independent tests in each group. (b) The bands of NCX1, NCX2, and NCX3 isoforms detected by Western blot analysis in the sample of HA and glioblastoma cell lines U87, U118, A172, U251, and SF188. (c) Representative recording of the NCX currents in HA and glioblastoma cell lines. (d) Viability of U87, U251, and SF188 cells and HA after exposure to KB‐R7943 (25 μM, 48 hr). n = 5 independent tests in each group

U251 cells = assay: Cell viability assay (Cell Counting Kit-8), U251; format: cell-based, Human; conditions: for IC50: 72 hr, CCK-8, mean ± SEM
Description: as §1, with “Cells were treated with test reagents for 72 hr.” left out
Figure 2 Effect of the Na^+/Ca^2+ exchanger (NCX) blockers on viability of human glioblastoma cell lines. (a, b) Viability of adult glioblastoma cell lines (U87 and U251) after exposure to NCX blockers bepridil, KB‐R7943, SEA0400, SN‐6, or YM244769 at 0–100 μM for 72 hr. n = 5 independent tests per group. (c) Viability of paediatric glioblastoma cell line SF188 after 72‐hr incubation with the same NCX blockers at 0–100 μM. n = 5 independent tests per group. (d) For U87, U251, and SF188 cell lines, concentration of the NCX blockers required to produce half maximal inhibition (IC50: μM, mean ± SEM) of cell viability.

U87 cells [1] = assay: Annexin V–FITC/PI apoptosis assay of U87 cells; format: cell-based, Human; conditions: bepridil 25 μM 6–48 hr, CB‐DMB 3.5 μM 6–48 hr, KB‐R7943 25 μM 20 hr, BAPTA‐AM 10 μM 18 hr, CC‐930 10 μM, PD169316 10 μM
Description: (§2) U87 cells were seeded in six‐well plates (Corning, Corning, NY, USA) with 1 × 10^6 cells per well and treated with NCX blockers, BAPTA‐AM, or MAPK inhibitors. Drug treatment was performed by the person who is blinded to the experimental groups. After treatment, cells were harvested in 15‐ml tubes and washed with cold sterile PBS. After being centrifuged, cells were fixed with 70% ethanol […] at 4°C for at least 1 hr. For propidium iodide (PI) staining, cells were washed one time with PBS and then were treated with ribonuclease A (RNase; 100 μg·ml^−1) for 30 min. PI (10 μg·ml^−1) was added, and stained cells were kept in the dark at 4°C until analysis. The number of cells analysed for each sample was 10,000 events. FACS analysis was performed using the Coulter CytoFlexS flow cytometer (Beckman Coulter, CA, USA), and the percentage of cells in the G0/G1, S, and G2/M phases was determined using cell cycle analysis software, ModFit LT 5.0 (Verity Software House, Topsham, ME, USA). For the apoptosis assay, cells were harvested and washed twice with cold PBS and resuspended at a density of 1 × 10^6 cells·ml^−1 in 100 μl of binding buffer containing 5 μl of Annexin V–FITC and 5 μl of PI working solution (100 μg·ml^−1). After incubation at room temperature for 15 min in the dark, 400 μl of binding buffer was added to each sample. Apoptosis was analysed by Coulter CytoFlexS flow cytometer (Beckman Coulter) for at least 10,000 events, and data were analysed with the software, CyExpert 2.0 (Beckman Coulter).

U87 cells [2] = assay: Cell cycle assay (PI staining, flow cytometry) of U87 cells; format: cell-based, Human; conditions: bepridil 25 μM 6–24 hr, CB‐DMB 3.5 μM 6–24 hr, KB‐R7943 25 μM 18 hr, BAPTA‐AM 10 μM 18 hr, CC‐930 10 μM, PD169316 10 μM 18 hr
Description: as §2

Compound: CC(C)COCC(CN(Cc1ccccc1)c1ccccc1)N1CCCC1 (stereo not drawn) [Bepridil, N‐benzyl‐N‐(3‐isobutoxy‐2‐pyrrolidin‐1‐yl‐propyl)aniline]
Cytotoxicity in human astrocytes (viability) (human astrocytes): did not generate apparent cytotoxicity | Effect on growth (viability) of U251 cells (U251 cells; 25 μM, 48 hr): markedly suppressed growth | IC50 (U251 cells; Homo sapiens, U-251): 14.9 ± 1.1 µM | Effect on apoptosis (Annexin V+ cells), compound alone (U87 cells [1]): time‐dependent increase of apoptotic (Annexin V^+) cells | Effect on cell cycle distribution, compound alone (U87 cells [2]): reduced the cell fraction in S phase and increased cells in G0/G1 phase in a time‐dependent manner

IC50 (U251 cells): 29.2 ± 1.1 µM
Compound: CS(=O)(=O)O.N=C(N)SCCc1ccc(OCc2ccc([N+](=O)[O-])cc2)cc1 [KB‐R7943, 2‐[4‐[(4‐nitrophenyl)methoxy]phenyl]ethyl ester carbamimidothioic acid methanesulfonate]
Cytotoxicity in human astrocytes (viability) (human astrocytes): deleterious to astrocytes | Effect on apoptosis (Annexin V+ cells), compound alone (U87 cells [1]): caused G0/G1 arrest and apoptosis | Effect on cell cycle distribution, compound alone (U87 cells [2]): caused G0/G1 arrest and apoptosis
